Reference: patent publication US10772902B2, “Use of floridoside or isethionic acid to potentiate antimicrobial activity of antibiotics” (OCELAND BIOLOGICALS LIMITED, priority 2016, dated 2020)
Values after ≈ are worked out from the molar mass of the structure shown.

Key:
S. Enteritidis [1] = assay: Antimicrobial effect of seaweed pure compounds, broth inoculation method (log CFU/mL); format: cell-based, Salmonella Enteritidis; details: 15 μg/mL of compound, no antibiotic; for colony count of S. Enteritidis, log CFU: control log CFU 6.5
Description: These pure compounds were tested in vitro against S. Enteritidis using the broth inoculation method of Example 2, but without the tetracycline or streptomycin. Fifteen (15) μg/mL of each compound was added to TSA broth and inoculated with S. Enteritidis.

S. Enteritidis [2] = assay: Combined effect of seaweed extract and antibiotics, liquid culture inhibition test (CFU); format: cell-based, Salmonella Enteritidis
Description: Seaweed water extracts (SWE) were prepared by grinding sun dried seaweeds to fine powder using a coffee grinder, and adding 5 grams of algal powder to 20 mL distilled water (DW). The resulting slurry was incubated at 50° C. for 3 hours under shaking condition at 140 rpm using an orbital shaker (New Brunswick Scientific, Enfield, Conn., US). The slurry was then centrifuged at 10,000 g for 15 min. The supernatant was recovered and the residual pellet was re-extracted three times using the same procedure. The resulting supernatants were pooled and freeze dried (Thermo Fisher Scientific Inc., US). Dilutions of SWE were prepared by dissolving 0.2, 0.4, 0.8, 1 and 2 g of soluble freeze dried extract in 1 mL distilled water. These dilutions were used as working concentration in all the experiments. The combined effect of the C. crispus (CC) extract or the S. gaudichaudii (SG) extract, with tetracycline or streptomycin (at MIC25 or MIC50), was evaluated in vitro by liquid culture inhibition test. To 10 mL of tryptic soy broth, seaweed extract (SWE) and 100 μL Salmonella Enteritidis (OD600=0.1, 1×10^8 cells/mL) were added. The final concentrations of seaweed extracts in 10 mL with tryptic soy broth were 200, 400, or 800 μg/mL. Culture tubes were incubated at 37° C. for 24 hrs. The growth of S. Enteritidis was determined by plating the serially diluted culture on TSA plates to enumerate the colony forming units (CFU).

S. Enteritidis [3] = assay: Minimum inhibitory concentrations (MIC25, MIC50) of antibiotics, broth inoculation method; format: cell-based; details: Salmonella enterica, 37° C., 16-18 h, inoculum 1×10^8 cells/mL
Description: Nalidixic acid resistant strain of S. Enteritidis was provided by Laboratory for Foodborne Zoonoses, Public Health Agency of Canada, Guelph, Ontario. Half strength tryptic soy agar (TSA) medium (Difco) supplemented with nalidixic acid at a concentration of 32 μg/mL was used for bacterial growth. Tetracycline and Streptomycin were obtained from Sigma Aldrich (Oakville, Ontario, Canada). Stock solutions of antibiotics and seaweed extract were prepared and stored at −20° C. Other chemicals and media were purchased from Difco Laboratories, Baltimore, Md., USA. Red seaweeds (Chondrus crispus, and Sarcodiotheca gaudichaudii) were provided by Acadian Seaplants Limited, Nova Scotia, Canada.
The susceptibility of S. Enteritidis to tetracycline and streptomycin was tested by broth inoculation method. The testing of MICs (MIC25 and MIC50) was performed in triplicates with an inoculum of 1×10^8 cells/mL. […] MATLAB R2010a (curve fitting tool) was used to determine minimum inhibitory concentrations (MIC) of the antibiotics.

SMILES | colony count of S. Enteritidis, log CFU (S. Enteritidis [1]) [log CFU] | MIC (S. Enteritidis [3]) [mg/L] | MIC50 (S. Enteritidis [3]) [mg/L] | CFU of S. Enteritidis compared to control (S. Enteritidis [1]) | also measured
OCC(CO)O[C@H]1O[C@H](CO)[C@H](O)[C@H](O)[C@H]1O [Floridoside, 2-O-α-D-galactopyranosylglycerol] | 6.21 | – | – | – | –
CN(C)[C@@H]1C(O)=C(C(N)=O)C(=O)[C@@]2(O)C(O)=C3C(=O)c4c(O)cccc4[C@@](C)(O)[C@H]3C[C@@H]12 [tetracycline] | – | ≤ 7.9 | ≤ 4 | – | growth of S. Enteritidis, log CFU (S. Enteritidis [2]; MIC controls (tetracycline without SG extract)): 5.5 log CFU; growth of S. Enteritidis, log CFU (S. Enteritidis [2]; tetracycline alone at MIC25, 24 hrs): 6.1 log CFU; growth of S. Enteritidis, log CFU (S. Enteritidis [2]; tetracycline alone at MIC50, 24 hrs): 5.5 log CFU
[H]/N=C(/N)N[C@H]1[C@H](O)[C@@H](O)[C@H](O[C@@H]2O[C@@H](C)[C@](O)(C=O)[C@H]2O[C@@H]2O[C@@H](CO)[C@H](O)[C@@H](O)[C@@H]2NC)[C@@H](N/C(N)=N\[H])[C@@H]1O [Streptomycin] | – | 1 (≈ 1.72 µM) | 1.63 (≈ 2.8 µM) | – | –
O=S(=O)(O)CCO [isethionic acid, Isethionic acid] | 6.33 | – | – | – | –
NC(=O)NCCC[C@H](N)C(=O)O [citrulline] | – | – | – | no statistically significant difference | –
NCCS(=O)(=O)O [taurine] | – | – | – | no statistically significant difference | –
